Assay results published in ChEMBL document CHEMBL1136208, “Bone-targeted Src kinase inhibitors: novel pyrrolo- and pyrazolopyrimidine analogues” (Bioorg Med Chem Lett, 2003).

Target: Proto-oncogene tyrosine-protein kinase Src (Homo sapiens, UniProt P12931)
Assay: In vitro inhibition of Src protein tyrosine kinase using the Scintillation proximity kinase assay.
Set-up: species or system Oryctolagus cuniculus

Sequence of Proto-oncogene tyrosine-protein kinase Src (P12931 2-536 limits assumed): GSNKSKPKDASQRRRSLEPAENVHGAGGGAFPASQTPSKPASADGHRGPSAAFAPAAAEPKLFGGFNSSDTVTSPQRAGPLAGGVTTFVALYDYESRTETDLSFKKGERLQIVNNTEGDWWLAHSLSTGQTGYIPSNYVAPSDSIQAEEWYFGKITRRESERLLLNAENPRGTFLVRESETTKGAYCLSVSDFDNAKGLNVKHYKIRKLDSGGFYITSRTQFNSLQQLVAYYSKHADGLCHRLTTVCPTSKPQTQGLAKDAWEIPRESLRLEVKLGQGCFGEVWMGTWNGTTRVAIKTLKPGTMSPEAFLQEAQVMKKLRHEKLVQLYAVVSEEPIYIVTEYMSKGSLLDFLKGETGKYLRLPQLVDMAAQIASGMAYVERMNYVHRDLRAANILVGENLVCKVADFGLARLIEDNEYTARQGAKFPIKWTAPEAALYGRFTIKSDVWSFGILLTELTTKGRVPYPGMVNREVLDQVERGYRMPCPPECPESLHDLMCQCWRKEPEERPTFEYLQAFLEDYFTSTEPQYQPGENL

| IC50 | SMILES |
| --- | --- |
| 40000 nM | COc1cccc(-c2cn(-c3ccc(C(=O)Nc4ccc(C(P(=O)(O)O)P(=O)(O)O)cc4)cc3)c3ncnc(N)c23)c1 |
| 700 nM | COc1cccc(-c2cn(-c3ccc(CCOP(=O)(O)CP(=O)(O)O)cc3)c3ncnc(N)c23)c1 |
| 40 nM | Nc1ncnc2c1c(-c1cccc(O)c1)cn2-c1ccc(CCO)cc1 |
| 19000 nM | COc1cccc(-c2cn(-c3cccc(C(=O)Nc4ccc(C(P(=O)(O)O)P(=O)(O)O)cc4)c3)c3ncnc(N)c23)c1 |
| 60 nM | Nc1ncnc2c1c(-c1cccc(O)c1)cn2-c1ccc(CCOP(=O)(O)CP(=O)(O)O)cc1 |
| 250 nM | COc1cccc(-c2cn(-c3ccc(C(=O)NCCCP(=O)(O)CP(=O)(O)O)cc3)c3ncnc(N)c23)c1 |
| 4000 nM | COc1cccc(-c2cn(-c3cccc(C(=O)O)c3)c3ncnc(N)c23)c1 |
| 40 nM | CN(CCO)CCc1ccc(-n2cc(-c3cccc(O)c3)c3c(N)ncnc32)cc1 |
| 160 nM | COc1cccc(-c2cn(-c3ccc(CCN(C)CCO)cc3)c3ncnc(N)c23)c1 |
| 2500 nM | COc1cccc(-c2cn(-c3cccc(C(=O)Nc4ccc(P(=O)(O)O)c(P(=O)(O)O)c4)c3)c3ncnc(N)c23)c1 |
| 1500 nM | COc1cccc(-c2cn(-c3ccc(C(=O)O)cc3)c3ncnc(N)c23)c1 |
| 4 nM | CN(CCOP(=O)(O)CP(=O)(O)O)CCc1ccc(-n2cc(-c3cccc(O)c3)c3c(N)ncnc32)cc1 |
| 360 nM | COc1cccc(-c2cn(-c3cccc(C(=O)NCCCP(=O)(O)CP(=O)(O)O)c3)c3ncnc(N)c23)c1 |
| 870 nM | COc1cccc(-c2cn(-c3ccc(C(=O)Nc4ccc(P(=O)(O)O)c(P(=O)(O)O)c4)cc3)c3ncnc(N)c23)c1 |
| 320 nM | Cc1ccc(-c2nn(-c3cccc(C(=O)NCc4ccc(P(=O)(O)O)c(P(=O)(O)O)c4)c3)c3ncnc(N)c23)cc1 |
| 400 nM | Cc1ccc(-c2nn(-c3cccc(C(=O)NCCCP(=O)(O)CP(=O)(O)O)c3)c3ncnc(N)c23)cc1 |
| 20 nM | Nc1ncnc2c1c(-c1cccc(O)c1)nn2-c1cccc(P(=O)(O)CC(=O)O)c1 |
| 1600 nM | COc1cccc(-c2nn(-c3cccc(P(=O)(O)CC(=O)O)c3)c3ncnc(N)c23)c1 |
| 310 nM | COc1cccc(-c2cn(-c3ccc(CCN(C)CCOP(=O)(O)CP(=O)(O)O)cc3)c3ncnc(N)c23)c1 |
| 680 nM | Cc1ccc(-c2nn(CCCCOP(=O)(O)CP(=O)(O)O)c3ncnc(N)c23)cc1 |
